Reference: publication PMC6789174 (Drug Design, Development and Therapy, 2019)
Values after ≈ are worked out from the molar mass of the structure shown. Where two headings read alike, the source gives them in different places.

Experiments:
[1] = target: α-glucosidase (Saccharomyces cerevisiae, UniProt P53341); test: Alpha glucosidase inhibition; type: biochemical
[2] = target: T1, porcine α-amylase (Sus scrofa, UniProt P00690); test: biochemical
T1 sequence (P00690 16-511): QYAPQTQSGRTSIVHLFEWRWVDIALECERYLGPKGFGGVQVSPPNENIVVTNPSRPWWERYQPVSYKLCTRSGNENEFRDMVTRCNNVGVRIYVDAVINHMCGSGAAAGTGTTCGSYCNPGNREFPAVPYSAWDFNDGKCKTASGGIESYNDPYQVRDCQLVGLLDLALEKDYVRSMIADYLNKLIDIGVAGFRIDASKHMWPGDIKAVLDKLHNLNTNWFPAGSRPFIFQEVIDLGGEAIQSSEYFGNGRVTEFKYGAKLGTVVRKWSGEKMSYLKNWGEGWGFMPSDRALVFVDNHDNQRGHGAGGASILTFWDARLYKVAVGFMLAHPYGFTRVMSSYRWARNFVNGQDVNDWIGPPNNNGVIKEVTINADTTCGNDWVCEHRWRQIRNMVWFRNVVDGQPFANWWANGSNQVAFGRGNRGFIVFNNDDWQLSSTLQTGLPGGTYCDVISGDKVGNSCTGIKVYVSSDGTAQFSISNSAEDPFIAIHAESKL

[3] = ABTS free radical scavenging
[4] = DPPH free radical scavenging
[5] = test system: Agrobacterium tumefaction; test: Anti-bacterial activity, agar well diffusion; type: cell-based
[6] = target: T2, glucose-6-phosphatase (Homo sapiens, UniProt P35575); test: Glucose-6-phosphatase activity; type: biochemical; conditions: 33°C, pH 6.7, control 72.0
T2 sequence (P35575 1-357): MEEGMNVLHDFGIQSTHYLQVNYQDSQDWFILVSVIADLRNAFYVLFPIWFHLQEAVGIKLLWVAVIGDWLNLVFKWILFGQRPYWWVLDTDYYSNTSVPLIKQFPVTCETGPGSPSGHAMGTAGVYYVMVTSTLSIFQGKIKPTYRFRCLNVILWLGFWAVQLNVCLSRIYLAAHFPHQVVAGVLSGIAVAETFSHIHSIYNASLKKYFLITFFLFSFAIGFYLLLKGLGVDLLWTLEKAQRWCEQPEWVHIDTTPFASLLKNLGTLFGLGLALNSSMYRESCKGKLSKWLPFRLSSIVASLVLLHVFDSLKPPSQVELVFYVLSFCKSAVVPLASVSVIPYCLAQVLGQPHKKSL

[7] = test system: Proteus vulgaris; test: Anti-bacterial activity, agar well diffusion; type: cell-based
[8] = target: Acetylcholinesterase (Homo sapiens, UniProt P22303); test: biochemical
Chain of Acetylcholinesterase (P22303 32-614, species assumed): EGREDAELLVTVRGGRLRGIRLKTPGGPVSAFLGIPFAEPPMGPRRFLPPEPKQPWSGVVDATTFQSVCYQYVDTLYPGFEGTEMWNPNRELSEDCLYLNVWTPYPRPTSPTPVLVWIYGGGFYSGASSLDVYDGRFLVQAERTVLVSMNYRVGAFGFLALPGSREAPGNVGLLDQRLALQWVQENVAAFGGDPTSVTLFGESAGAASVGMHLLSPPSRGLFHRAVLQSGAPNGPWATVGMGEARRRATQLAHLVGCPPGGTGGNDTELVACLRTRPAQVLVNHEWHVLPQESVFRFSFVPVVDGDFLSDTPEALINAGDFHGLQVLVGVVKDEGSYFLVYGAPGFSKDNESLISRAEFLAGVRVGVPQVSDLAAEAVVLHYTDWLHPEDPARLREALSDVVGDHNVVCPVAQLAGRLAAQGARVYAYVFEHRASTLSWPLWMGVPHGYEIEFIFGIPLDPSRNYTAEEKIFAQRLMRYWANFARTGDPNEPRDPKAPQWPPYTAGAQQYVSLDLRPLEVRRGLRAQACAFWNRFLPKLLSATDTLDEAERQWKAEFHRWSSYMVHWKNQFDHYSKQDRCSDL

[9] = target: Butyrylcholinesterase (Homo sapiens, UniProt P06276); test: Anticholinesterase assay; type: biochemical
Chain of Butyrylcholinesterase (P06276 29-602): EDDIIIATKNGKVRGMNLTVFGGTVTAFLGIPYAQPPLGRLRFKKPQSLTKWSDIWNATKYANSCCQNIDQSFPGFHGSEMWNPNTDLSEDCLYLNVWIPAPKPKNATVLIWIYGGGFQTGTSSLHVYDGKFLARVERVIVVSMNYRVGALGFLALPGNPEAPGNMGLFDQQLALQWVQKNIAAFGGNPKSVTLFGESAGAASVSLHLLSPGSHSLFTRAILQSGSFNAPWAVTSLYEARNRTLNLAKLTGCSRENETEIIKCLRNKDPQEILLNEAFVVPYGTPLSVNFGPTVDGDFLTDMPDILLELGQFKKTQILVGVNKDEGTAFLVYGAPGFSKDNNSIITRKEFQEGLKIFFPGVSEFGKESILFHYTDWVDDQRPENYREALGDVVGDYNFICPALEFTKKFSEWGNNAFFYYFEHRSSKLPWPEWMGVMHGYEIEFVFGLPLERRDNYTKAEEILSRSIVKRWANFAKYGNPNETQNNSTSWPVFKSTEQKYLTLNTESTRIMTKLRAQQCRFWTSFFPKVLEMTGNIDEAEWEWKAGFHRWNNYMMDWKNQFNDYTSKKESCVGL

[10] = test system: Staphylococcus aureus; test: Anti-bacterial activity, agar well diffusion; type: cell-based
[11] = read-out: %Inhibition (mean ± SEM), alpha amylase
[12] = read-out: ZI (Zone of inhibition), Agrobacterium tumefaction
[13] = read-out: ZI (Zone of inhibition), Proteus vulgaris
[14] = read-out: %AChE Inhibition (mean ± SEM)
[15] = read-out: %BChE Inhibition (mean ± SEM)
[16] = read-out: ZI (Zone of inhibition), Staphylococcus aureus

Chain of α-glucosidase (P53341 whole entry): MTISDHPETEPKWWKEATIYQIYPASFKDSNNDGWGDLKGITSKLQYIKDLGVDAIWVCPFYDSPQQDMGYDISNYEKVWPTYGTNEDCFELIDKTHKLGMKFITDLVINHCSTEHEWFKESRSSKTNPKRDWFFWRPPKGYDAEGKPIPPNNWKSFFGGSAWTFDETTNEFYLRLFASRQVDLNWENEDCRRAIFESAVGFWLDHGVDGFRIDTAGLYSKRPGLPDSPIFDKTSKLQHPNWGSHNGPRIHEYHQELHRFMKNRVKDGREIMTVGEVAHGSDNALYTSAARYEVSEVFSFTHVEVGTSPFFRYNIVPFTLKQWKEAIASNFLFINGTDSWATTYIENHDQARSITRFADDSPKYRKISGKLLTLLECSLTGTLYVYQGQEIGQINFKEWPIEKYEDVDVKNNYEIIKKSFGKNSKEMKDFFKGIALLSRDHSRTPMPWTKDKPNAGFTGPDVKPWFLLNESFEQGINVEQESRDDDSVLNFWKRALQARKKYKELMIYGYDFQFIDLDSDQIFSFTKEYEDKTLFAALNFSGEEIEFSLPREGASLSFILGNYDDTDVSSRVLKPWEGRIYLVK

C[C@H]1O[C@H](O[C@H]2[C@H](O)[C@@H](O)[C@@H](O[C@H]3[C@H](O)[C@@H](O)C(O)O[C@@H]3CO)O[C@@H]2CO)[C@H](O)[C@@H](O)[C@@H]1N[C@H]1C=C(CO)[C@@H](O)[C@H](O)[C@H]1O (stereo partly drawn) [Acarbose]
%Inhibition (mean ± SEM), alpha glucosidase [1]: 94.02 ± 1.23%
%Inhibition (mean ± SEM), alpha glucosidase ([1]; concentration 125 μg/mL): 59.83 ± 2.04%
%Inhibition (mean ± SEM), alpha glucosidase ([1]; concentration 250 μg/mL): 68.14 ± 2.18%
%Inhibition (mean ± SEM), alpha glucosidase ([1]; concentration 500 μg/mL): 79.11 ± 2.12%
inhibition at 125 µg/mL [2, 11]: 58.1 ± 1.34%
inhibition at 500 µg/mL [2, 11]: 73 ± 1.34%
inhibition at 1000 µg/mL [2, 11]: 88.1 ± 1.13%

O=C1O[C@H]([C@@H](O)CO)C(O)=C1O [Ascorbic acid, reference compound]
ABTS IC50 [3]: 55 µg/mL
ABTS % I (mean ± S.E.M) ([3]; concentration 125 μg/mL): 55.30 ± 1.75%
ABTS % I (mean ± S.E.M) ([3]; concentration 250 μg/mL): 70.14 ± 1.16%
ABTS % I (mean ± S.E.M) ([3]; concentration 500 μg/mL): 85.45 ± 1.36%
ABTS % I (mean ± S.E.M) ([3]; concentration 1000 μg/mL): 88.17 ± 0.43%
DPPH IC50 [4]: 35 µg/mL
DPPH % I (mean ± S.E.M) ([4]; concentration 125 μg/mL): 67.40±1.18%
DPPH % I (mean ± S.E.M) ([4]; concentration 250 μg/mL): 76.13±1.45%
DPPH % I (mean ± S.E.M) ([4]; concentration 500 μg/mL): 85.11 ± 1.64%
DPPH % I (mean ± S.E.M) ([4]; concentration 1000 μg/mL): 90.14 ± 0.76%

S=C(NC(c1ccccn1)C(Cc1ccccc1)Cc1ccccc1)NC(c1ccccn1)C(Cc1ccccc1)Cc1ccccc1 (stereo not drawn) [Compound I, 1,3-bis(2-benzyl-3-phenyl-1-(pyridine-2-yl)propyl)thiourea]
ABTS IC50 [3]: 66 µg/mL
ABTS % I (mean ± S.E.M) ([3]; concentration 125 μg/mL): 77.55 ± 1.93%
ABTS % I (mean ± S.E.M) ([3]; concentration 250 μg/mL): 78.21 ± 1.21%
ABTS % I (mean ± S.E.M) ([3]; concentration 500 μg/mL): 80.16 ± 2.01%
ABTS % I (mean ± S.E.M) ([3]; concentration 1000 μg/mL): 81.67 ± 1.20%
MIC ([5]; read-out: MIC, Agrobacterium tumefaction): 4.02 µg/mL (≈ 6.21 µM)
zone of inhibition at 10 µg/mL [5, 12]: 21 mm
zone of inhibition at 20 µg/mL [5, 12]: 24 mm
zone of inhibition at 30 µg/mL [5, 12]: 26 mm
Total Activity of glucose-6-phosphatase ([6]; concentration 125 µg/mL): 34.11 mg of P released per hour
Total Activity of glucose-6-phosphatase ([6]; concentration 250 µg/mL): 31.62 mg of P released per hour
Total Activity of glucose-6-phosphatase ([6]; concentration 500 µg/mL): 25.31 mg of P released per hour
MIC ([7]; read-out: MIC, Proteus vulgaris): 9.76 µg/mL (≈ 15.1 µM)
zone of inhibition at 10 µg/mL [7, 13]: 15 mm
zone of inhibition at 20 µg/mL [7, 13]: 22 mm
zone of inhibition at 30 µg/mL [7, 13]: 24 mm
DPPH IC50 [4]: 67 µg/mL
DPPH % I (mean ± S.E.M) ([4]; concentration 125 μg/mL): 78.55 ± 1.73%
DPPH % I (mean ± S.E.M) ([4]; concentration 250 μg/mL): 80.21 ± 1.21%
DPPH % I (mean ± S.E.M) ([4]; concentration 500 μg/mL): 82.16 ± 1.01%
DPPH % I (mean ± S.E.M) ([4]; concentration 1000 μg/mL): 86.67 ± 1.20%
IC50 [8]: 1550 µM
%AChE Inhibition (mean ± SEM) ([8]; concentration 500 μg/mL): 55.59 ± 1.23%
inhibition at 125 µg/mL [8, 14]: 38.6 ± 1.33%
inhibition at 250 µg/mL [8, 14]: 46.1 ± 1.85%
inhibition at 1000 µg/mL [8, 14]: 68.1 ± 1.4%
IC50 [9]: 309 µM
inhibition at 125 µg/mL [9, 15]: 48.1 ± 1.08%
inhibition at 250 µg/mL [9, 15]: 51.4 ± 2.05%
inhibition at 500 µg/mL [9, 15]: 56.3 ± 1.66%
inhibition at 1000 µg/mL [9, 15]: 57.81 ± 0.54%
IC50 [2]: 130 µM
inhibition at 125 µg/mL ([2]; read-out: %Inhibition (mean ± SEM), alpha amylase, concentration 125 µg/mL): 60.2 ± 1.03%
inhibition at 250 µg/mL ([2]; read-out: %Inhibition (mean ± SEM), alpha amylase, concentration 250 µg/mL): 63.1 ± 1.41%
inhibition at 500 µg/mL ([2]; read-out: %Inhibition (mean ± SEM), alpha amylase, concentration 500 µg/mL): 68.1 ± 0.87%
inhibition at 1000 µg/mL ([2]; read-out: %Inhibition (mean ± SEM), alpha amylase, concentration 1000 µg/mL): 70.29 ± 0.31%
MIC ([10]; read-out: MIC, Staphylococcus aureus): 19.6 µg/mL (≈ 30.3 µM)
zone of inhibition at 10 µg/mL [10, 16]: 13 mm
zone of inhibition at 20 µg/mL [10, 16]: 16 mm
zone of inhibition at 30 µg/mL [10, 16]: 18 mm
